Data as given in US20080051418A1, “Arylalkanoic Acid Derivative” (priority 2004, published 2008).
Where two headings read alike, the source gives them in different places.

Columns and labels:
[1] = biological target: T1, PPARδ-RXRα heterodimer (Homo sapiens, UniProt Q03181); assay: PPARδ-RXRα heterodimer ligand activity (luciferase reporter); format: cell-based; conditions: transformant of Reference Example 9a of WO03/099793, 36-48 hr, concentration showing 50% of the maximum induction rate
T1 construct: expressed in transfected cells
T1 sequence (Q03181 1-441): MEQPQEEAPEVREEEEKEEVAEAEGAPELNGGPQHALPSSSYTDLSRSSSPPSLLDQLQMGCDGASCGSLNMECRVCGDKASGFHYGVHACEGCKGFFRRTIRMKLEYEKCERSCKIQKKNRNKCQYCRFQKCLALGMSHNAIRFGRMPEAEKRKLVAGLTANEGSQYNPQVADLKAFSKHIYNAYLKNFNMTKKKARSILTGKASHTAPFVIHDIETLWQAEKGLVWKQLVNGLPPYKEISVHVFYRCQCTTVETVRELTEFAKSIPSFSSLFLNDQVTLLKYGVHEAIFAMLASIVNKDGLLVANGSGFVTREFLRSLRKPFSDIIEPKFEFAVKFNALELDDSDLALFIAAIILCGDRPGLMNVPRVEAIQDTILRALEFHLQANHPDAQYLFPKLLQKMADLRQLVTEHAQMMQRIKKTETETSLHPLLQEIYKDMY
T1 sequence (P19793 1-462 partner): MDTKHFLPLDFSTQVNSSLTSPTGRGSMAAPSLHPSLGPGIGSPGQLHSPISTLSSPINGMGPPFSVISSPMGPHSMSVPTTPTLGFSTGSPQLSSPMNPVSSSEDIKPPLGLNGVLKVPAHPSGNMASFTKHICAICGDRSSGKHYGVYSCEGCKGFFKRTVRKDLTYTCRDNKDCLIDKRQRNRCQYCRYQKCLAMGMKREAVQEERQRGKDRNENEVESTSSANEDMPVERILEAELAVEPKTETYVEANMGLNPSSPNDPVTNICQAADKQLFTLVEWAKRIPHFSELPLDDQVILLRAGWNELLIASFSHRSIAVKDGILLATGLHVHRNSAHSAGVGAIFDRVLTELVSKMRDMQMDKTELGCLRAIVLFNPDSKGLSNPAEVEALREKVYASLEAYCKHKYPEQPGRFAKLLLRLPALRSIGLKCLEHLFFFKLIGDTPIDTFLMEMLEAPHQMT
Protocol: The transformant described in Reference Example 9a of WO03/099793 was suspended in a DMEM medium [manufactured by Life technologies, Inc., US] containing 0.1% fatty acid-free bovine serum albumin (BSA) (manufactured by Wako Pure Chemical Industries, Ltd.), and inoculated to each well of a 96 well white plate [manufactured by Corning Coster Corporation, US] by 80 μl to 1×10^4 cells/well. Then, the test compound (20 μl) was added, and cultured under the conditions of 37° C., 5% CO2 for 36-48 hr. The medium was removed from the 96 well white plate, 40 μl of PicaGene LT 7.5 (manufactured by Wako Pure Chemical Industries, Ltd.) diluted 2-fold with HBSS (HANKS' BALANCED SALT SOLUTION) [manufactured by BIO WHITTAKER, US] was added and, after stirring, the luciferase activity was determined using the 1420 ARVO Multilabel Counter [manufactured by PerkinElmer, US].
The induction rate was calculated from the luciferase activity of each test compound based on the luciferase activity of the test compound non-administration group as 1. The test compound concentration and the induction rate were analyzed by PRISM [manufactured by GraphPad Software, Inc., US] to calculate EC50 value (compound concentration showing 50% of the maximum value of induction rate) of the test compound.

[2] = biological target: T2, PPARγ-RXRα heterodimer (Homo sapiens, UniProt P37231); assay: PPARγ-RXRα heterodimer ligand activity (luciferase reporter); format: cell-based; conditions: PPARγ:RXRα:4ERPP/CHO-K1 cells, 18-24 hr, concentration showing 50% of the maximum induction rate
T2 construct: expressed in transfected cells; host or cells: CHO-K1
T2 sequence (P37231 1-505): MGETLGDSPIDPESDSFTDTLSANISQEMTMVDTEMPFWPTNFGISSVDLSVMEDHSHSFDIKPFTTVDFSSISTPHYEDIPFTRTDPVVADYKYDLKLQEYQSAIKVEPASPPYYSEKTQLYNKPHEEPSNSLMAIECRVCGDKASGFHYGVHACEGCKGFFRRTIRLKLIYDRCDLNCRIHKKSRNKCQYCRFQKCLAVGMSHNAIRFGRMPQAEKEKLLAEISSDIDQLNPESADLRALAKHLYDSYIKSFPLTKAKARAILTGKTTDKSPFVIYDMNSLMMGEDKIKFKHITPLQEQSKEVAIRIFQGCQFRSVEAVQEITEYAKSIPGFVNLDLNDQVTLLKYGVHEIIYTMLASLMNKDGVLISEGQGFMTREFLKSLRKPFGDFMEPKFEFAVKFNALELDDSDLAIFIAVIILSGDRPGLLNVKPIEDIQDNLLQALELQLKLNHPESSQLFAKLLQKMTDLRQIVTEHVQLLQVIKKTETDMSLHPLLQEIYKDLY
T2 sequence (P19793 1-462 partner): T1 sequence (P19793 1-462 partner)
How it was run: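 CHO-K1 cells carrying PPARγ, RXRα and a 4ERPP luciferase reporter, exposed to compound 18–24 h at 37 °C in Ham F12 with 0.1% fatty acid-free BSA. Luciferase induction expressed relative to untreated cells (= 1). EC50 is concentration giving 50% of maximal induction.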

[3] = system: KKA^y mice; assay: Blood glucose and blood lipid (triglyceride) lowering action in mice; format: in vivo; conditions: Mus musculus, po, 96 h, 0.005% in powder diet, 4 days, non-administration group = 100%
Source text: The test compound was mixed with a powder diet (CE-2, CLEA JAPAN, INC.) at a proportion of 0.005% (0.01% for the compound of Example 105) and freely given to KKA^y mice (9 to 12-week-old, 5 mice per group) which are obesity-insulin independent diabetes mellitus (type-2 diabetes) models, for 4 days. During this period, water was freely given. The blood was drawn from the orbital venous plexus. Glucose and triglyceride in the plasma separated from the blood were quantitated using L Type Wako Glu2 (Wako Pure Chemical Industries, Ltd.) and L Type Wako TG•H (Wako Pure Chemical Industries, Ltd.), respectively, according to an enzyme method.

[4] = system: KKA^y mice; assay: Plasma antiatherogenic index increasing action in mice; format: in vivo; conditions: Mus musculus, po, 96 h, 0.005% in powder diet, 4 days, increase rate of (HDL cholesterol/total cholesterol)×100, non-administration group = 100%
Protocol: The test compound was mixed with a powder diet (CE-2, CLEA JAPAN, INC.) at a proportion of 0.005% (0.01% for the compound of Example 105) and freely given to KKA^y mice (9 to 12-week-old, 5 mice per group) which are obesity-insulin independent diabetes mellitus (type-2 diabetes) models, for 4 days. During this period, water was freely given. The blood was drawn from fundus and the components were measured using the plasma separated from the blood. The total cholesterol was quantified using L Type Wako cholesterol (Wako Pure Chemical Industries, Ltd.). In addition, an HDL cholesterol precipitation reagent (Wako Pure Chemical Industries, Ltd.) was added to a part of the plasma to allow precipitation of a non-HDL lipoprotein, and the cholesterol (HDL cholesterol) of the supernatant was measured. The plasma antiatherogenic index [(HDL cholesterol/total cholesterol)×100] was calculated from these cholesterol values.

[5] = lowering rate of plasma glucose, read-out: hypoglycemic action (%)
[6] = lowering rate of plasma triglyceride, read-out: hypolipidemic action (%)

**Q.** Which EC50 [1] does the source give for COc1cccc(CC(=O)O)c1OCCCc1cc(OC(C)C)nn1Cc1ccc(F)cc1Cl [Example 64, (2-{3-[1-(2-chloro-4-fluorobenzyl)-3-isopropoxy-1H-pyrazol-5-yl]propoxy}-3-methoxyphenyl)acetic acid] here?
**A.** The EC50 was 93 nM.

**Q.** What about the EC50 [2] of the same compound?
**A.** Its EC50 is 11 nM.

**Q.** What about the inhibition in vivo at 0.005 % [3, 5] of the same compound?
**A.** The inhibition in vivo at 0.005 % was 59%.

**Q.** What about the inhibition in vivo at 0.005 % [3, 6] of the same compound?
**A.** The inhibition in vivo at 0.005 % was 71%.

**Q.** Which results are given for CCn1nc(OCCCc2ccc(OC(C)C)cc2Oc2ncc(C(F)(F)F)cc2Cl)cc1CCC(=O)O [Example 141, 3-{3-[3-(2-{[3-chloro-5-(trifluoromethyl)pyridin-2-yl]oxy}-4-isopropoxyphenyl)propoxy]-1-ethyl-1H-pyrazol-5-yl}propanoic acid]?
**A.** EC50 [1]: 6.9 nM; EC50 [2]: 1.6 nM; inhibition in vivo at 0.005 % [3, 5]: 44%; inhibition in vivo at 0.005 % [3, 6]: 41%; melting point: 73 to 74 °C

**Q.** With CCn1cc(CC(=O)O)c(OCCCc2ccc(OC(C)C)cc2Oc2ccc(C(F)(F)F)cn2)n1 [Example 108, {1-ethyl-3-[3-(4-isopropoxy-2-{[5-(trifluoromethyl)pyridin-2-yl]oxy}phenyl)propoxy]-1H-pyrazol-4-yl}acetic acid] as the compound, how does the change in vivo at 0.005 % [4] read?
**A.** The change in vivo at 0.005 % was 12%.

**Q.** What does the source list for COCCOc1ccc(CCCOc2nn(C)cc2CC(=O)O)c(Oc2ncc(C(F)(F)F)cc2Cl)c1 [Example 122, (3-{3-[2-{[3-chloro-5-(trifluoromethyl)pyridin-2-yl]oxy}-4-(2-methoxyethoxy)phenyl]propoxy}-1-methyl-1H-pyrazol-4-yl)acetic acid]?
**A.** EC50 [1]: 76 nM; EC50 [2]: 4.1 nM; inhibition in vivo at 0.005 % [3, 5]: 72%; inhibition in vivo at 0.005 % [3, 6]: 33%; melting point: 127 to 129 °C

**Q.** What does the source list for COCOc1ccc(CCCOc2nn(Cc3ccccc3)cc2CC(=O)O)c(Oc2ncc(C(F)(F)F)cc2Cl)c1 [Example 112, (3-{3-[2-{[3-chloro-5-(trifluoromethyl)pyridin-2-yl]oxy}-4-(methoxymethoxy)phenyl]propoxy}-1-benzyl-1H-pyrazol-4-yl)acetic acid]?
**A.** EC50 [1]: 57 nM; EC50 [2]: 0.57 nM; melting point: 108 to 109 °C

**Q.** For CC(C)Oc1ccc(CCCOc2cc(CCC(=O)O)n(-c3ccccc3)n2)c(OCc2ccc(C(F)(F)F)cc2)c1 [Example 166, 3-{3-[3-(4-isopropoxy-2-{[4-(trifluoromethyl)benzyl]oxy}phenyl)propoxy]-1-phenyl-1H-pyrazol-5-yl}propanoic acid], which EC50 [1] is on record?
**A.** The EC50 was 2.2 nM.

**Q.** And the EC50 [2]?
**A.** The EC50 was 24 nM.

**Q.** And the melting point?
**A.** The melting point was 118 to 119 °C.

**Q.** For CC(C)Oc1ccc(CCCOc2cc(CCC(=O)O)n(C(C)C)n2)c(Oc2ncc(C(F)(F)F)cc2Cl)c1 [Example 142, 3-{3-[3-(2-{[3-chloro-5-(trifluoromethyl)pyridin-2-yl]oxy}-4-isopropoxyphenyl)propoxy]-1-isopropyl-1H-pyrazol-5-yl}propanoic acid], which EC50 [1] is on record?
**A.** Its EC50 is 14 nM.

**Q.** What about the EC50 [2] of the same compound?
**A.** Its EC50 is 7 nM.

**Q.** And the melting point?
**A.** The melting point was 127.5 to 128.5 °C.

**Q.** For CCn1cc(CC(=O)O)c(OCCCc2ccc(OC(C)C)cc2Oc2ncc(C(F)(F)F)cc2Cl)n1 [Example 117, {3-[3-(2-{[3-chloro-5-(trifluoromethyl)pyridin-2-yl]oxy}-4-isopropoxyphenyl)propoxy]-1-ethyl-1H-pyrazol-4-yl}acetic acid], which EC50 [1] is on record?
**A.** Its EC50 is 4.3 nM.

**Q.** And the EC50 [2]?
**A.** Its EC50 is 0.78 nM.

**Q.** And the inhibition in vivo at 0.005 % [3, 5]?
**A.** The inhibition in vivo at 0.005 % was 49%.

**Q.** What about the inhibition in vivo at 0.005 % [3, 6] of the same compound?
**A.** The inhibition in vivo at 0.005 % was 18%.

**Q.** Which EC50 [1] does the source give for CC(C)Oc1ccc(CCCOc2cc(CCC(=O)O)n(-c3ccccc3)n2)c(Oc2ncc(C(F)(F)F)cc2Cl)c1 [Example 136, 3-{3-[3-(2-{[3-chloro-5-(trifluoromethyl)pyridin-2-yl]oxy}-4-isopropoxyphenyl)propoxy]-1-phenyl-1H-pyrazol-5-yl}propanoic acid] here?
**A.** Its EC50 is 2.5 nM.

**Q.** What about the EC50 [2] of the same compound?
**A.** The EC50 was 0.42 nM.

**Q.** What about the inhibition in vivo at 0.005 % [3, 5] of the same compound?
**A.** Its inhibition in vivo at 0.005 % is 57%.

**Q.** And the inhibition in vivo at 0.005 % [3, 6]?
**A.** Its inhibition in vivo at 0.005 % is 38%.

**Q.** And the melting point?
**A.** Its melting point is 86 to 88 °C.

**Q.** For COCCOc1ccc(CCCOc2cc(CCC(=O)O)n(-c3ccccc3)n2)c(Oc2ncc(C(F)(F)F)cc2Cl)c1 [Example 147, 3-(3-{3-[2-{[3-chloro-5-(trifluoromethyl)pyridin-2-yl]oxy}-4-(2-methoxyethoxy)phenyl]propoxy}-1-phenyl-1H-pyrazol-5-yl)propanoic acid], which EC50 [1] is on record?
**A.** Its EC50 is 4.4 nM.

**Q.** What about the EC50 [2] of the same compound?
**A.** The EC50 was 0.35 nM.

**Q.** What about the melting point of the same compound?
**A.** The melting point was 128 to 129 °C.

**Q.** What does the source list for CC(C)Oc1ccc(CCCCOc2cc(CCC(=O)O)n(-c3ccccc3)n2)c(Oc2ncc(C(F)(F)F)cc2Cl)c1 [Example 156, 3-{3-[4-(2-{[3-chloro-5-(trifluoromethyl)pyridin-2-yl]oxy}-4-isopropoxyphenyl)butoxy]-1-phenyl-1H-pyrazol-5-yl}propanoic acid]?
**A.** EC50 [1]: 3.4 nM; EC50 [2]: 0.99 nM; melting point: 75 to 77 °C

**Q.** For COc1cccc(CC(=O)O)c1OCCCc1cc(OC(C)C)nn1Cc1ccc(Cl)cc1C [Example 68, (2-{3-[1-(4-chloro-2-methylbenzyl)-3-isopropoxy-1H-pyrazol-5-yl]propoxy}-3-methoxyphenyl)acetic acid], which EC50 [1] is on record?
**A.** The EC50 was 74 nM.

**Q.** What about the EC50 [2] of the same compound?
**A.** Its EC50 is 6 nM.

**Q.** What about the melting point of the same compound?
**A.** Its melting point is 108 to 109 °C.

**Q.** For CC(C)Oc1ccc(CCCOc2ncccc2CC(=O)O)c(Oc2ncc(Cl)cc2Cl)c1 [Example 121, [2-(3-{2-[(3,5-dichloropyridin-2-yl)oxy]-4-isopropoxyphenyl}propoxy)pyridin-3-yl]acetic acid], which EC50 [1] is on record?
**A.** The EC50 was 7.6 nM.

**Q.** What about the EC50 [2] of the same compound?
**A.** The EC50 was 3.3 nM.

**Q.** And the melting point?
**A.** The melting point was 84 to 85 °C.
